Measured values: patent publication US20020150621A1, “Lipid-protein-sugar particles for drug delivery” (priority 2000, published 2002)
Like-named read-outs stand apart in the source and are kept apart here.

Key:
[1] = Systemic distribution/toxicity after sciatic injection (contralateral thermal latency, deaths); type: in vivo, rat; conditions: 1.5 ml of 0.5% bupivacaine (7.5 mg), n=6
Experimental: (§1) Prior to nerve block injections, rats were anesthetized briefly (<2 minutes) with halothane. […] A 20G needle was introduced postero-medial to the greater trochanter, pointing in an anteromedial direction (Thalhammer et al. “Neurologic evaluation of the rat during sciatic nerve block with lidocaine” Anesthesiology 82:1013-1025, 1995; incorporated herein by reference). Once bone was contacted, the needle was withdrawn 1 mm and the particle-containing solution was injected. The left leg was always used for blocks; the right served as control.
Nociceptive block was assessed by a modified hotplate test (Masters et al. “Prolonged regional nerve blockade by controlled release of local anesthetic from a biodegradable polymer matrix” Anesthesiology 79:1-7, 1993; incorporated herein by reference). Hind paws were exposed in sequence (left then right) to a hot plate at 56° C. (Model 39D Hot Plate Analgesia Meter, IITC Inc., Woodland Hills, Calif.), and the time (latency) until paw withdrawal was measured by a stopwatch. Thermal latency is a measure of the intensity of analgesia. If the paw remained in contact for 12 seconds, it was removed by the experimenter to avoid injury to the animal or the development of hyperalgesia. This test was repeated three times for each rat at every time-point.

[2] = adult rats; Kohane et al. 1998; cited from earlier work
[3] = Median lethal dose of bupivacaine (literature); type: in vivo; conditions: in a 350 g rat
Experimental: Encapsulation improved the safety and efficacy of bupivacaine. […] For this experiment larger rats (approx. 410 g) were used than those used in the remainder of the study, in order to avoid animal death (the median lethal dose of bupivacaine in adult rats is 30±5 mg/kg (Kohane et al. “Sciatic nerve blockade in infant, adolescent, and adult rats: a comparison of ropivacaine and bupivacaine” Anesthesiology 89:1199-1208, 1998; incorporated herein by reference), or 10.5 mg in a 350 g rat). […] It was not possible to directly compare the efficacy of bupivacaine solution and 50% bupivacaine microspheres, since the dose of bupivacaine contained in 75 mg of those microspheres ([…]) is approximately three times the median lethal dose of the unencapsulated drug (Kohane et al. “Sciatic nerve blockade in infant, adolescent, and adult rats: a comparison of ropivacaine and bupivacaine” Anesthesiology 89:1199-1208, 1998). Nevertheless, it is obvious that the microspheres increased the safety of bupivacaine.

sciatic nerve = assay: Sciatic nerve block, thermal nociception (modified hotplate test); type: in vivo, rat; conditions: 1.5 ml of 0.5% bupivacaine (7.5 mg), n=6, rats approx. 410 g
Experimental: as §1
The effectiveness of block was measured at various time points, applying the methods of Thalhammer et al. (Thalhammer et al. “Neurologic evaluation of the rat during sciatic nerve block with lidocaine” Anesthesiology 82:1013-1025, 1995; […]; incorporated herein by reference).
Nociceptive block was assessed by a modified hotplate test (Masters et al. “Prolonged regional nerve blockade by controlled release of local anesthetic from a biodegradable polymer matrix” Anesthesiology 79:1-7, 1993; incorporated herein by reference). Hind paws were exposed in sequence (left then right) to a hot plate at 56° C. (Model 39D Hot Plate Analgesia Meter, IITC Inc., Woodland Hills, Calif.), and the time (latency) until paw withdrawal was measured by a stopwatch. Thermal latency is a measure of the intensity of analgesia. […]

In the case of `CCCCN1CCCCC1C(=O)Nc1c(C)cccc1C` (stereo not shown) [bupivacaine], the “rats with severe signs of systemic toxicity (thermal latency=12 seconds in the uninjected leg)” value [1] is listed as “one of those rats”, the median lethal dose [2] is listed as 30 ± 5 mg/kg and the median lethal dose [3] is listed as 10.5 mg. It also gave a duration of block (sciatic nerve) of 166 ± 55 min.
